Results taken from patent US20250049817A1, “JAK INHIBITOR WITH A VITAMIN D ANALOG FOR TREATMENT OF SKIN DISEASES” (INCYTE CORPORATION, priority 2020, published 2025).

Assays:
[1] = biological target: human JAK1 (a.a. 837-1142) (Homo sapiens, UniProt P23458); assay: In vitro JAK kinase assay (HTRF), JAK1; format: biochemical; settings: 1 mM ATP
[2] = test system: human JAK1 (a.a. 837-1142); assay: In vitro JAK kinase assay (HTRF), JAK1; format: biochemical; settings: JAK2/JAK1 IC50 ratio, 1 mM ATP
keratinocyte cell line = settings: concentration-dependent; read-out: IC50 for decreasing keratinocyte cell line proliferation; cited from earlier work

Structure (SMILES) | IC50 [1] [nM] | JAK2/JAK1 [2] | IC50 (keratinocyte cell line) [nM]
N#CCC(C1CCN(c2cccc(Cl)n2)C1)n1cc(-c2ncnc3[nH]ccc23)cn1 (single isomer, unassigned) [Compound 6, 3-[1-(6-chloropyridin-2-yl)pyrrolidin-3-yl]-3-[4-(7H-pyrrolo[2,3-d]pyrimidin-4-yl)-1H-pyrazol-1-yl]propanenitrile] | < 10 | >10 | 
N#CCC1(n2cc(-c3ncnc4[nH]ccc34)cn2)CN(C2CCN(C(=O)c3ccnc(C(F)(F)F)c3F)CC2)C1 [Compound 1, {1-{1-[3-Fluoro-2-(trifluoromethyl)isonicotinoyl]piperidin-4-yl}-3-[4-(7H-pyrrolo [2,3-d]pyrimidin-4-yl)-1H-pyrazol-1-yl]azetidin-3-yl}acetonitrile] | < 10 | >10 | 
N#CCC1(n2cc(-c3ncnc4[nH]ccc34)cn2)CN(C2CCN(C(=O)c3ccnc(C(F)(F)F)n3)CC2)C1 [Compound 3, [3-[4-(7H-pyrrolo[2,3-d]pyrimidin-4-yl)-1H-pyrazol-1-yl]-1-(1-{[2-(trifluoromethyl)pyrimidin-4-yl]carbonyl}piperidin-4-yl)azetidin-3-yl]acetonitrile] | < 10 | >10 | 
N#CCC(CN1CCN(C(=O)c2ccc(C#N)cc2F)CC1)n1cc(-c2ncnc3[nH]ccc23)cn1 (stereo not shown) [Compound 8, 4-[(4-{3-cyano-2-[4-(7H-pyrrolo[2,3-d]pyrimidin-4-yl)-1H-pyrazol-1-yl]propyl}piperazin-1-yl)carbonyl]-3-fluorobenzonitrile] | < 10 | >10 | 
N#CC[C@]1(n2cc(-c3ncnc4[nH]ccc34)cn2)C[C@H](N2CCC(Oc3cc(CN4CC(O)C4)cc(C(F)(F)F)n3)CC2)C1 [Compound 11, {trans-3-(4-{[4-[(3-hydroxyazetidin-1-yl)methyl]-6-(trifluoromethyl)pyridin-2-yl]oxy}piperidin-1-yl)-1-[4-(7H-pyrrolo[2,3-d]pyrimidin-4-yl)-1H-pyrazo1-1-yl]cyclobutyl}acetonitrile] | < 10 | >10 | 
N#CC[C@]1(n2cc(-c3ncnc4[nH]ccc34)cn2)C[C@H](N2CCC(Oc3cc(CN4CCC[C@H]4CO)cc(C(F)(F)F)n3)CC2)C1 [Compound 12, {trans-3-(4-{[4-{[(2S)-2-(hydroxymethyl)pyrrolidin-1-yl]methyl}-6-(trifluoromethyl)pyridin-2-yl]oxy}piperidin-1-yl)-1-[4-(7H-pyrrolo[2,3-d]pyrimidin-4-yl)-1H-pyrazol-1-yl]cyclobutyl}acetonitrile] | < 10 | >10 | 
N#CC[C@]1(n2cc(-c3ncnc4[nH]ccc34)cn2)C[C@H](N2CCC(Oc3cc(CN4CCC[C@@H]4CO)cc(C(F)(F)F)n3)CC2)C1 [Compound 13, {trans-3-(4-{[4-{[(2R)-2-(hydroxymethyl)pyrrolidin-1-yl]methyl}-6-(trifluoromethyl)pyridin-2-yl]oxy}piperidin-1-yl)-1-[4-(7H-pyrrolo[2,3-d]pyrimidin-4-yl)-1H-pyrazol-1-yl]cyclobutyl}acetonitrile] | < 10 | >10 | 
C[C@H](NC(=O)c1cc(F)c(N2CC(CC#N)(n3cc(-c4ncnc5[nH]ccc45)cn3)C2)cc1F)C(F)(F)F [Compound 16, 4-{3-(cyanomethyl)-3-[4-(7H-pyrrolo[2,3-d]pyrimidin-4-yl)-1H-pyrazol-1-yl]azetidin-1-yl]-2,5-difluoro-N-[(1S)-2,2,2-trifluoro-1-methylethyl]benzamide] | < 10 | >10 | 
N#CCC1(n2cc(-c3ncnc4[nH]ccc34)cn2)CN([C@H]2CC[C@@H](Oc3cc(CCO)nc(C(F)(F)F)n3)CC2)C1 [Compound 18, {1-(cis-4-{[6-(2-hydroxyethyl)-2-(trifluoromethyl)pyrimidin-4-yl]oxy}cyclohexyl)-3-[4-(7H-pyrrolo[2,3-d]pyrimidin-4-yl)-1H-pyrazol-1-yl]azetidin-3-yl}acetonitrile] | < 10 | >10 | 
N#CCC1(n2cc(-c3ncnc4[nH]ccc34)cn2)CN([C@H]2CC[C@@H](Oc3cc(CN4CC[C@@H](O)C4)cc(C(F)(F)F)n3)CC2)C1 [Compound 21, {1-(cis-4-{[4-{[(3R)-3-hydroxypyrrolidin-1-yl]methyl}-6-(trifluoromethyl)pyridin-2-yl]oxy}cyclohexyl)-3-[4-(7H-pyrrolo[2,3-d]pyrimidin-4-yl)-1H-pyrazol-1-yl]azetidin-3-yl}acetonitrile] | < 10 | >10 | 
N#CCC1(n2cc(-c3ncnc4[nH]ccc34)cn2)CN([C@H]2CC[C@@H](Oc3cc(CN4CC[C@H](O)C4)cc(C(F)(F)F)n3)CC2)C1 [Compound 22, {1-(cis-4-{[4-{[(3S)-3-hydroxypyrrolidin-1-yl]methyl}-6-(trifluoromethyl)pyridin-2-yl]oxy}cyclohexyl)-3-[4-(7H-pyrrolo[2,3-d]pyrimidin-4-yl)-1H-pyrazol-1-yl]azetidin-3-yl}acetonitrile] | < 10 | >10 | 
C[C@@H](O)CNCc1cc(OC2CCN([C@H]3C[C@](CC#N)(n4cc(-c5ncnc6[nH]ccc56)cn4)C3)CC2)nc(C(F)(F)F)c1 [Compound 24, {trans-3-(4-{[4-({[(2R)-2-hydroxypropyl]amino}methyl)-6-(trifluoromethyl)pyridin-2-yl]oxy}piperidin-1-yl)-1-[4-(7H-pyrrolo[2,3-d]pyrimidin-4-yl)-1H-pyrazol-1-yl]cyclobutyl]acetonitrile] | < 10 | >10 | 
N#CC[C@]1(n2cc(-c3ncnc4[nH]ccc34)cn2)C[C@H](N2CCC(Oc3cc(CCO)cc(C(F)(F)F)n3)CC2)C1 [Compound 26, {trans-3-(4-{[4-(2-hydroxyethyl)-6-(trifluoromethyl)pyridin-2-yl]oxy}piperidin-1-yl)-1-[4-(7H-pyrrolo[2,3-d]pyrimidin-4-yl)-1H-pyrazol-1-yl]cyclobutyl]acetonitrile] | < 10 | >10 | 
C=C1/C(=C\C=C2/CCC[C@]3(C)[C@@H]([C@H](C)OCCC(C)(C)O)CC[C@@H]23)C[C@@H](O)C[C@@H]1O [maxacalcitol] |  |  | 10 to 100
C=C1/C(=C\C=C2/CCC[C@]3(C)[C@@H]([C@H](C)CC[C@@H](O)C(C)C)CC[C@@H]23)C[C@@H](O)C[C@@H]1O [tacalcitol] |  |  | 10 to 100

Now from value to compound, other results behind:

IC50 [1] [nM] | JAK2/JAK1 [2] | Structure (SMILES) | IC50 (keratinocyte cell line) [nM]
< 10 | >10 | N#CCC1(n2cc(-c3ncnc4[nH]ccc34)cn2)CN(C2CCN(C(=O)Nc3ccc(F)cc3C(F)(F)F)CC2)C1 [Compound 2, 4-{3-(Cyanomethyl)-3-[4-(7H-pyrrolo[2,3-d]pyrimidin-4-yl)-1H-pyrazol-1-yl]azetidin-1-yl}-N-[4-fluoro-2-(trifluoromethyl)phenyl] piperidine-1-carboxamide] | 
< 100 | >10 | C[C@@H](O)c1nc2cnc3ccsc3c2n1[C@H]1CC[C@H](CC#N)OC1 [Compound 5, ((2R,5S)-5-{2-[(1R)-1-hydroxyethyl]-1H-imidazo[4,5-d]thieno[3,2-b]pyridin-1-yl}tetrahydro-2H-pyran-2-yl)acetonitrile] | 
< 10 | >10 | N#CCC(C1CCN(c2nc3cccnc3o2)C1)n1cc(-c2ncnc3[nH]ccc23)cn1 (stereo not shown) [Compound 7, 3-(1-[1,3]oxazolo[5,4-b]pyridin-2-ylpyrrolidin-3-yl)-3-[4-(7H-pyrrolo[2,3-d]pyrimidin-4-yl)-1H-pyrazol-1-yl]propanenitrile] | 
< 10 | >10 | N#CCC(CN1CCN(C(=O)c2ccc(C#N)cc2F)CC1)n1ccc(-c2ncnc3[nH]ccc23)c1 (stereo not shown) [Compound 9, 4-[(4-{3-cyano-2-[3-(7H-pyrrolo[2,3-d]pyrimidin-4-yl)-1H-pyrrol-1-yl]propyl}piperazin-1-yl)carbonyl]-3-fluorobenzonitrile] | 
< 10 | >10 | N#CC[C@]1(n2cc(-c3ncnc4[nH]ccc34)cn2)C[C@H](N2CCN(C(=O)c3ccnc(C(F)(F)F)n3)CC2)C1 [Compound 10, [trans-1-[4-(7H-pyrrolo[2,3-d]pyrimidin-4-yl)-1H-pyrazol-1-yl]-3-(4-{[2-(trifluoromethyl)pyrimidin-4-yl]carbonyl}piperazin-1-yl)cyclobutyl]acetonitrile] | 
< 10 | >10 | CCNCc1cc(O[C@H]2CC[C@@H](N3CC(CC#N)(n4cc(-c5ncnc6[nH]ccc56)cn4)C3)CC2)nc(C(F)(F)F)c1 [Compound 19, {1-(cis-4-{[4-[(ethylamino)methyl]-6-(trifluoromethyl)pyridin-2-yl]oxy}cyclohexyl)-3-[4-(7H-pyrrolo[2,3-d]pyrimidin-4-yl)-1H-pyrazol-1-yl]azetidin-3-yl}acetonitrile] | 
< 10 | >10 | CC(C)(O)c1cc(O[C@H]2CC[C@@H](N3CC(CC#N)(n4cc(-c5ncnc6[nH]ccc56)cn4)C3)CC2)nc(C(F)(F)F)c1 [Compound 20, {1-(cis-4-{[4-(1-hydroxy-1-methylethyl)-6-(trifluoromethyl)pyridin-2-yl]oxy]cyclohexyl)-3-[4-(7H-pyrrolo[2,3-d]pyrimidin-4-yl)-1H-pyrazol-1-yl]azetidin-3-yl}acetonitrile] | 
< 10 | >10 | C[C@@H](CO)NCc1cc(OC2CCN([C@H]3C[C@](CC#N)(n4cc(-c5ncnc6[nH]ccc56)cn4)C3)CC2)nc(C(F)(F)F)c1 [Compound 23, {trans-3-(4-{[4-({[(1S)-2-hydroxy-1-methylethyl]amino}methyl)-6-(trifluoromethyl)pyridin-2-yl]oxy}piperidin-1-yl)-1-[4-(7H-pyrrolo[2,3-d]pyrimidin-4-yl)-1H-pyrazol-1-yl]cyclobutyl}acetonitrile] | 
< 10 | >10 | C[C@H](O)CNCc1cc(OC2CCN([C@H]3C[C@](CC#N)(n4cc(-c5ncnc6[nH]ccc56)cn4)C3)CC2)nc(C(F)(F)F)c1 [Compound 25, {trans-3-(4-{[4-({[(2S)-2-hydroxypropyl]amino}methyl)-6-(trifluoromethyl)pyridin-2-yl]oxy}piperidin-1-yl)-1-[4-(7H-pyrrolo[2,3-d]pyrimidin-4-yl)-1H-pyrazol-1-yl]cyclobutyl}acetonitrile] | 
